Consider two compounds from patent publication US10857105B2, “Compounds and compositions for intracellular delivery of therapeutic agents” (ModernaTX, Inc., priority 2017, dated 2020).

The nature of series [1]: in vivo. To be noted: male, Sprague-Dawley, rat, iv.
Protocol: LNP administration to animals: mRNA-LNPs diluted in phosphate buffered saline (PBS) were injected intravenously (5 mL/kg) into female CD-1 female mice (18 to 22 g in body weight) and male Sprague-Dawley rats (225-250 g in body weight) via the tail vein using 29 g, 3/10 cc insulin syringes (mice) or 27 g, 1 mL syringes (rats) after gentle warming of the animals using a heat lamp for 3 minutes.
Protein was precipitated and analyzed against calibration standards prepared in matching blank. Chromatographic separation and quantification was accomplished with a LC-MS/MS System. Samples were injected and separated via HPLC A triple-quadrupole MS/MS system operated in positive ion mode was used for signal detection.
PK analysis of the individual plasma and tissue concentration data was performed using anon-validated program (Phoenix WinNonlin®, Version 7.0 (Pharsight Corp., Mountain View, Calif.)). Kinetic parameters were estimated using a noncompartmental model (Plasma (200-202), Uniform weighting, extravascular dosing with sparse sampling). The AUG was calculated using the linear trapezoidal rule. All derived parameters are reported to 3 significant figures with the exception of time to peak concentration (Tmax) and halflife (HL), which are reported to one decimal place. No further statistical analyses were performed on the plasma concentration data or derived pharacokinetic parameters.
Series [2] has as its system cynomolgus monkeys. In words: Human IgG (anti-influenza A antibody mRNA) expression in non-human primates. The class given is in vivo, cynomolgus monkey. The settings on record: NHP, single dose. Here is the method:
(§1) NHP studies: Nonhuman primate studies were conducted using naïve cynomolgus monkeys (cynos), 2-4 years old, weighing 2-6 kg. No treatment randomization or blinding methods were used for any of the animal studies. Sample sizes were determined by the resource equation method. For injection, mRNA-LNPs in phosphate buffered saline (PBS) were administered by 60-minute intravenous infusion using a temporary indwelling catheter inserted in a peripheral vein.
Human IgG analysis for NHP samples: A 10.0-μL matrix aliquot is transferred to a low protein binding 96-well plate. A 25.0-μL aliquot of the working internal standard solution is added, and the sample aliquot is diluted with loading buffer. […] The final extract is analyzed via HPLC with MS/MS detection using positive ion electrospray. A linear, 1/concentration^2 weighted, least-squares regression algorithm is used to quantitate unknown samples.
NHP more closely approximates clinical responses for LNP-based systems than rodent (DeRosa, F., Guild, B., Karve, S., Smith, L., Love, K., Dorkin, J R., et. al. Therapeutic efficacy in a hemophilia B model using a biosynthetic mRNA liver depot system. Gene Ther. 2016, 23, 699-707, the contents of which are incorporated herein by reference in their entireties). […] A separate study evaluated the lipid tissue accumulation in NHP after a single dose.

The subject of series [3] is mice. The series is described as follows: hEPO expression on repeat intravenous dosing of hEPO mRNA LNPs in mice. The settings on record: 0.5 mg/kg hEPO mRNA intravenously to mice. The class given is in vivo. The procedure:
Blood collection and analysis for hEPO. Blood was collected from mice or rats via the tail vein and hEPO concentrations were determined using a hEPO ELISA assay.
Repeat dosing of mRNA in an MC3-based LNP for a therapeutic indication would be expected to lead to accumulation of MC3 in tissues, based on the measured half-life. Therefore it was investigated whether the favorable single dose pharmacokinetics of compound 18 were maintained with weekly dosing. Clearance of MC3 and compound 18 from multiple mouse tissues was measured after dosing 0.05 mg/kg mRNA on day 1, 8 and 15 (FIG. 30A). Following dosing with MC3 LNPs, lipid was detected in liver, spleen, plasma, kidney, heart and lung; with liver and spleen containing the largest concentrations (FIG. 30A, for full panel of tissues see FIG. 35A). […] Compound 18 was also detected in plasma, lung, and kidney, but not in heart (FIG. 35A).

In series [4] the test system is human hepatocytes. The series is described as follows: Metabolite profiling of Compound 18 incubated with human hepatocytes. It is filed as in vitro ADME. Also on record: key: +: Detected; ND: Not detected. To be noted: Compound 18 (10 μM). Here is the method:
In vitro metabolite identification studies using compound 18 were also performed. […] The disappearance of parent compound 18 and the primary metabolite, compound 166, from mouse liver tissue was measured after dosing 0.25 mg/kg mRNA on days 1, 8, and 15.
The results of metabolic profiling and characterization for compound 18 incubated with human hepatocytes or human plasma are summarized in Tables 41 and 42, respectively.

For series [5], the system named is cynomolgus monkeys. The series is described as follows: Repeat dose hEPO expression in cynomolgus monkeys, once weekly for 5 weeks. The class given is in vivo, cynomolgus monkey. The settings on record: 0.2 mg/kg hEPO mRNA, 60-minute intravenous infusion, n=4. The procedure:
as §1
hEPO ELISA for NHP samples: Human Epo levels were measured using a human erythropoietin immunoassay. Cytokines levels were measured using a non-human primate cytokine kit.
The level of expression provided by LNPs of the disclosure in a repeat dose experiment in primates was evaluated. A 0.2 mg/kg dose of hEPO mRNA in a compound 18-based LNP was delivered via a 60-minute intravenous infusion to cynomolgus monkeys (n=4) once weekly for 5 weeks.

The subject of series [6] is hEPO mRNA. The series is described as follows: hEPO expression and pharmacokinetic parameters after intravenous infusion to non-human primates. The class given is in vivo. To be noted: 0.01 mpk, iv infusion 60 minutes, cynomolgus monkeys.
A short description of series [7]: pKa / apparent pKa of nanoparticle compositions. To be noted: Table 1B; formulated with hEPO mRNA.
In series [8] the test system is hEPO mRNA. The series is described as follows: Pretreatment study (methotrexate or dexamethasone) with MC3 formulation in Cynomolgus monkeys. The class given is in vivo. To be noted: once weekly for four weeks, absence of any pretreatment. The source says:
In order to combat negative effects, nanoparticle compositions are co-administered with one or more substances (e.g., co-medications or additional therapeutic and/or prophylactics) to subjects. Potentially useful additional therapeutic and/or prophylactics include steroids (e.g., corticosteroids), anti-histamines, H1 receptor blockers, H2 receptor blockers, anti-inflammatory compounds, statins, BTK inhibitors, S1P1 agonists, glucocorticoid receptor modulators (GRMs), and estradiols. Non-human primates are pretreated with one or more additional therapeutic agents selected from dexamethasone and acetaminophen. The additional therapeutic agent is administered either 24 hours, 1 hour, or both 24 hours and 1 hour before administration of a nanoparticle composition. Cytokine profiles, inflammation, and other parameters are measured and compared to evaluate the effectiveness of pretreatment
The effects of pretreatment to non-human primates were evaluated using a standard MC3 formulation including an mRNA encoding hEPO. Male monkeys were administered the nanoparticle composition once weekly for four weeks at a dose rate of 5 ml/kg/h and were pretreated with either methotrexate or dexamethasone.
As shown, in the absence of any pretreatment, maximal expression levels decreased nearly 70% over the course of the study.

For series [9], the system named is Sprague Dawley rat. The settings on record: 0.3 mg/kg dose mRNA; cited from earlier work.
Series [10] is described as follows: MC3 single cell necrosis in rat liver and liver enzymes (ALT, AST). The class given is in vivo. The settings on record: rats, 0.3 mg/kg MC3-based LNP. Here is the method:
FIG. 37 is a series of graphs illustrating MC3 single cell necrosis in rat liver and liver enzyme. The top row is a pair of images of livers of rats administered with 0.3 mg/kg of a […] (LNP) not containing an mRNA (right) and PBS (phosphate buffered saline) as a control (left). The bottom row is a pair of graphs showing expression of ALT (left) and AST(right) in the liver following administration of a 0.3 mg/kg of a MC3-based LNP containing an mRNA.

In general, half-life refers to the time needed for the level to fall by half in the phase considered.

The structures appear in SMILES notation. “Also recorded” adds a separate entry of the source.

`CCCCCCCCCOC(=O)CCCCCCCN(CCO)CCCCCCCC(=O)OC(CCCCCCCC)CCCCCCCC` [Compound 18, Heptadecan-9-yl 8-((2-hydroxyethyl)(8-(nonyloxy)-8-oxooctyl)amino)octanoate]: the half-life in series [1] is 5.8 h. The “increase in expression of anti-human IgG influenza A antibody compared to an MC3 LNP” value in series [2] is listed as 5 fold. Further, the “hEPO expression on repeat dosing” value in series [3] is on record as “Consistent levels of expression”. Besides, the “Detection at 0 min” value in series [4] (human hepatocytes (1 million cells/mL), 0 min) is “+”. Besides, the “Detection at 60 min” value in series [4] (human hepatocytes, 60 min) is given as “+”. Moreover, in series [4] (human hepatocytes, 120 min), the “Detection at 120 min” value is recorded as “+”. Besides, the “Detection at 240 min” value in series [4] (human hepatocytes, 240 min) was “+”. In addition, the “hEPO exposure over repeat dosing” value in series [5] is on record as “Efficient expression; also recorded: Consistent exposure”.
On to `CCCCCC=CCC=CCCCCCCCCC(CCCCCCCCC=CCC=CCCCCC)OC(=O)CCCN(C)C` (stereo not shown) [MC3, heptatriaconta-6,9,28,31-tetraen-19-yl 4-(dimethylamino)butanoate, reference compound], for which, in [6], the “AUC Lipid/MC3 Ratio” value is 1.0. Besides, the “Apparent pKa” value in [7] was determined as 6.35. Moreover, in series [8], the “Decrease of maximal expression levels over the course of the study” value is given as about 70%. The “ALT, AST and pathology of MC3-based mRNA LNP” value in series [9] was “ALT and AST were elevated and pathology showed evidence of necrosis”. Besides, in series [10], the “ALT, AST and liver pathology” value is “ALT and AST were elevated and pathology showed evidence of necrosis”.
